Experimental data published in PubChem BioAssay (NCI).
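GI50 is the concentration that inhibits growth by half. At the TGI there is no net growth.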

Experiments:
Assay in all cases: NCI anticancer screen, dose series, 384-well format; in the data active means GI50 below about 0.43 µM; inactive means the rest
SK-MEL-5 melanoma = system: SK-MEL-5 melanoma
NCI-H460 NSCLC = system: NCI-H460 NSCLC
COLO 205 colon = system: COLO 205 colon
OVCAR-4 ovarian = system: OVCAR-4 ovarian
EKVX NSCLC = system: EKVX NSCLC
MDA-MB-231 breast = system: MDA-MB-231 breast
SNB-75 CNS = system: SNB-75 CNS
UO-31 renal = system: UO-31 renal
LOX IMVI melanoma = system: LOX IMVI melanoma
CCRF-CEM leukemia = system: CCRF-CEM leukemia
PC-3 prostate = system: PC-3 prostate
A549 NSCLC = system: A549 NSCLC
IGROV1 ovarian = system: IGROV1 ovarian

COCCOc1cnc2ccn([C@H](C)c3nnc4c(F)cc(-c5cnn(C)c5)cn34)c(=O)c2c1
> 100 µM: TGI (SK-MEL-5 melanoma) | TGI (NCI-H460 NSCLC) | TGI (COLO 205 colon) | TGI (OVCAR-4 ovarian) | TGI (EKVX NSCLC) | TGI (MDA-MB-231 breast) | TGI (SNB-75 CNS) | TGI (UO-31 renal) | TGI (LOX IMVI melanoma) | TGI (CCRF-CEM leukemia) | TGI (PC-3 prostate) | TGI (A549 NSCLC) | TGI (IGROV1 ovarian)
inactive: GI50 (SK-MEL-5 melanoma) > 100 µM | GI50 (NCI-H460 NSCLC) > 100 µM | GI50 (COLO 205 colon) > 100 µM | GI50 (OVCAR-4 ovarian) 98 µM | GI50 (EKVX NSCLC) > 100 µM | GI50 (MDA-MB-231 breast) > 100 µM | GI50 (SNB-75 CNS) > 100 µM | GI50 (UO-31 renal) > 100 µM | GI50 (LOX IMVI melanoma) > 100 µM | GI50 (CCRF-CEM leukemia) > 100 µM | GI50 (PC-3 prostate) > 100 µM | GI50 (A549 NSCLC) > 100 µM | GI50 (IGROV1 ovarian) > 100 µM
